We go through ten molecules from PubChem BioAssay (NCI).

Test in all cases: growth of human tumour cells (NCI), 48 h
Test [1] concerns ACHN renal.
Test [2] concerns EKVX NSCLC.
For test [3], the system named is HCT-15 colon.
Test [4] concerns HL-60(TB) leukemia.
Test [5] deals with HOP-62 NSCLC.
Test [6] concerns K-562 leukemia.
Test [7] relates to LOX IMVI melanoma.
In test [8] the test system is M14 melanoma.
The subject of test [9] is OVCAR-8 ovarian.
In test [10] the test system is SF-295 CNS.
Test [11] deals with SK-MEL-5 melanoma.
Test [12] relates to SK-OV-3 ovarian.
Test [13] concerns UACC-62 melanoma.
Test [14] relates to HCC-2998 colon.
For test [15], the system named is HS 578T breast.
Test [16] concerns MCF7 breast.
For test [17], the system named is MDA-MB-231 breast.
Test [18] relates to MDA-MB-435.
The test system of test [19] is NCI/ADR-RES ovarian.

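Cultured in 96-well plates, cells were exposed to test compound for 48 hours across five concentrations. TGI is the concentration that stops growth completely.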

As for `CC1(C)COC(c2cccnc2/C=N/O)=N1`, the TGI in test [1], in [2], in test [3], in test [4], in test [5] and in test [6] was greater than 100 µM each time. Also, the TGI in [7], in test [8], in test [9], in test [10], in test [11] and in [12] was greater than 100 µM in each case. Also, the TGI in test [13] was greater than 100 µM.

Consider `O=C1C(Cl)N(c2ccc(Cl)cc2)C1c1c[nH]c2ccccc12` (stereo unspecified), for which the TGI in [2] was 32.5 µM; in [4] it was 44.5 µM; in test [5], 33.7 µM; in test [6], 73.3 µM; in [8], 42.3 µM; in test [9] it was greater than 100 µM. For the same molecule, the TGI in test [10] stood at 31.5 µM; in [11] it was 31 µM; in [13], 68.8 µM.

`O=Cc1cn(CCCCCCCCCCCCn2cc(C=O)c3ccccc32)c2ccccc12`: the TGI in test [1], in [2], in test [14], in [3], in test [4] and in test [5] was greater than 100 µM each time. Further, the TGI in test [15], in test [6], in [7], in test [8], in test [16] and in test [17] was greater than 100 µM throughout. For the same molecule, the TGI in test [18], in [19], in test [9], in test [10], in [11] and in [12] was greater than 100 µM in each case. The molecule further displayed a TGI in test [13] greater than 100 µM.

As for `COc1ccc(C2C(Cl)C(=O)N2n2cnc3ccccc3c2=O)cc1` (stereo unspecified), the TGI in test [1], in [2], in [14], in test [3], in [4] and in test [5] was greater than 100 µM in each case. Moreover, the TGI in test [6] is greater than 100 µM; in test [7] it was greater than 100 µM; in test [8] it was 91.6 µM; in [9], greater than 100 µM; in [10], greater than 100 µM; in test [11], greater than 100 µM. In addition, the TGI in test [12] and in test [13] was greater than 100 µM each time.

For `COc1cc(C2SCC(=O)N2c2ccccn2)cc(OC)c1OC` (stereo unspecified), the TGI in test [1], in test [2], in [14], in test [3], in test [4] and in test [15] was greater than 100 µM each time. In addition, the TGI is greater than 100 µM in test [6]; greater than 100 µM in test [7]; greater than 100 µM in test [8]; greater than 100 µM in test [16]; greater than 100 µM in [17]; 77.6 µM in test [18]. Besides, the TGI in [19], in test [9], in [10], in test [11], in test [12] and in test [13] was greater than 100 µM throughout.

For `O=c1[nH]c2c(nc1NC13CC4CC(CC(C4)C1)C3)c(=O)oc1ccccc12`, the TGI in test [1], in [2], in test [14], in test [3], in [4] and in [5] was greater than 100 µM in each case. The TGI in test [6], in test [7], in test [8], in [9], in test [11] and in test [12] was greater than 100 µM each time. For the same molecule, the TGI in [13] was greater than 100 µM.

`CCOC(=O)C1(C#N)C(c2ccccc2)CC(O)(c2ccc(OC)cc2)C(C(=O)c2ccc(OC)cc2)C1c1ccccc1` (stereo unspecified): the TGI in [1], in [2], in test [14], in [3], in test [4] and in [5] was greater than 100 µM throughout. The TGI in test [6], in [7], in test [8], in test [9], in test [10] and in test [11] was greater than 100 µM in each case. Moreover, the TGI in test [12] and in [13] was greater than 100 µM in each case.

In the case of `CC(C)(C)OC(=O)N1CCc2[nH][nH]c(=O)c2C1`, the TGI in [2], in test [3], in test [4], in test [5], in [15] and in [6] was greater than 100 µM each time. The TGI in test [8], in test [16], in test [17], in test [18], in test [19] and in test [9] was greater than 100 µM in each case. The TGI in [10], in test [12] and in [13] was greater than 100 µM throughout.

`Cc1cc(N)c(C)c2c1[nH]c1ccc(O)cc12`: the TGI in test [1], in [2], in [14], in test [3], in test [4] and in test [5] was greater than 100 µM throughout. The TGI in test [6], in [7], in [8], in test [9] and in [10] was greater than 100 µM each time.

Turning to `CN(CC(=O)O)c1ncc2c(n1)-c1ccccc1SC2`, the TGI in test [1], in test [2], in test [3], in test [4], in test [15] and in [7] was greater than 100 µM each time. Also, the TGI in [8], in test [16], in [17], in test [18], in [19] and in test [9] was greater than 100 µM in each case. Besides, the TGI in test [10], in test [11] and in test [13] was greater than 100 µM throughout.
